Source: the supplement of paper PMC8671470
± gives the standard deviation of the averaged measurements.

Experiments:
Settings in all cases: 72 h
HL-60 [1] = assay: cell viability (% survival relative to DMSO control); higher = less cytotoxic
Method in brief: (§1)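 In 384-well plates, the full library was rescreened in duplicate on HL-60 cells in RPMI 1640 with 10% FBS, at 1–10,000 nM in five tenfold concentrations, for 72 h at 37 °C, 5% CO2. Each run also held DMSO or 100 nM of one of three metabolic inhibitors. Viability was measured by CellTiter-Glo and normalised to DMSO wells and to wells with proteasome inhibitor, present at 10 μM. Any area under the curve comes from four-parameter log-logistic fitting with drc and PharmacoGx.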

HL-60 [2] = assay: area under dose-response curve (viability, 1 nM-10 uM) (fraction (0-1)); higher = more sensitive
Method in brief: as §1

BV-173 = test system: BV-173
Method in brief: (§2)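 In 384-well plates holding acoustically pre-printed compounds at five tenfold doses from 1 to 10,000 nM, in duplicate, fifteen myeloid leukaemia cell lines were grown in RPMI 1640 for 72 h at 37 °C with 5% CO2. Luminescent ATP viability was scaled between vehicle and a positive control at 10 µM. The IC50 was then taken from log-logistic dose–response fits with four parameters.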

HEL = test system: HEL
Method in brief: as §2

HL-60 [3] = test system: HL-60
Method in brief: as §2

K-562 = test system: K-562
Method in brief: as §2

KCL-22 = test system: KCL-22
Method in brief: as §2

KG-1 = test system: KG-1
Method in brief: as §2

KU-812 = test system: KU-812
Method in brief: as §2

LAMA-84 = test system: LAMA-84
Method in brief: as §2

ML-2 = test system: ML-2
Method in brief: as §2

MOLM-13 = test system: MOLM-13
Method in brief: as §2

MV4-11 = test system: MV4-11
Method in brief: as §2

Mono-Mac-6 = test system: Mono-Mac-6
Method in brief: as §2

NOMO-1 = test system: NOMO-1
Method in brief: as §2

SHI-1 = test system: SHI-1
Method in brief: as §2

THP-1 = test system: THP-1
Method in brief: as §2

[4] = 0.001 µM, co-treatment: AZD3965 100 nM
[5] = 0.001 µM, co-treatment: DMSO vehicle
[6] = 0.001 µM, co-treatment: GSK2194069 100 nM
[7] = 0.001 µM, co-treatment: pictilisib 100 nM
[8] = 0.01 µM, co-treatment: AZD3965 100 nM
[9] = 0.01 µM, co-treatment: DMSO vehicle
[10] = 0.01 µM, co-treatment: GSK2194069 100 nM
[11] = 0.01 µM, co-treatment: pictilisib 100 nM
[12] = 0.1 µM, co-treatment: AZD3965 100 nM
[13] = 0.1 µM, co-treatment: DMSO vehicle
[14] = 0.1 µM, co-treatment: GSK2194069 100 nM
[15] = 0.1 µM, co-treatment: pictilisib 100 nM
[16] = 1 µM, co-treatment: AZD3965 100 nM
[17] = 1 µM, co-treatment: DMSO vehicle
[18] = 1 µM, co-treatment: GSK2194069 100 nM
[19] = 1 µM, co-treatment: pictilisib 100 nM
[20] = 10 µM, co-treatment: AZD3965 100 nM
[21] = 10 µM, co-treatment: DMSO vehicle
[22] = 10 µM, co-treatment: GSK2194069 100 nM
[23] = 10 µM, co-treatment: pictilisib 100 nM
[24] = co-treatment: GSK2194069 100 nM
[25] = co-treatment: pictilisib 100 nM

IC50 (cell viability) (HL-60 [3]) [µM] | IC50 (cell viability) (K-562) [µM] | IC50 (cell viability) (MOLM-13) [µM] | IC50 (cell viability) (MV4-11) [µM] | IC50 (cell viability) (THP-1) [µM] | Structure (SMILES) | cell viability (HL-60 [1]; [4]) [%] | cell viability (HL-60 [1]; [5]) [%] | cell viability (HL-60 [1]; [6]) [%] | cell viability (HL-60 [1]; [7]) [%] | cell viability (HL-60 [1]; [8]) [%] | cell viability (HL-60 [1]; [9]) [%] | cell viability (HL-60 [1]; [10]) [%] | cell viability (HL-60 [1]; [11]) [%] | cell viability (HL-60 [1]; [12]) [%] | cell viability (HL-60 [1]; [13]) [%] | cell viability (HL-60 [1]; [14]) [%] | cell viability (HL-60 [1]; [15]) [%] | cell viability (HL-60 [1]; [16]) [%] | cell viability (HL-60 [1]; [17]) [%] | cell viability (HL-60 [1]; [18]) [%] | cell viability (HL-60 [1]; [19]) [%] | cell viability (HL-60 [1]; [20]) [%] | cell viability (HL-60 [1]; [21]) [%] | cell viability (HL-60 [1]; [22]) [%] | cell viability (HL-60 [1]; [23]) [%] | area under dose-response curve (HL-60 [2]; co-treatment: AZD3965 100 nM) | area under dose-response curve (HL-60 [2]; co-treatment: DMSO vehicle) | area under dose-response curve (HL-60 [2]; [24]) | area under dose-response curve (HL-60 [2]; [25]) | IC50 (cell viability) (BV-173) [µM] | IC50 (cell viability) (HEL) [µM] | IC50 (cell viability) (KCL-22) [µM] | IC50 (cell viability) (KG-1) [µM] | IC50 (cell viability) (KU-812) [µM] | IC50 (cell viability) (LAMA-84) [µM] | IC50 (cell viability) (ML-2) [µM] | IC50 (cell viability) (Mono-Mac-6) [µM] | IC50 (cell viability) (NOMO-1) [µM] | IC50 (cell viability) (SHI-1) [µM]
– | – | – | – | – | CC(C(=O)O)C(=O)O [methylmalonate] | 100 ± 1.6 | 97.43 ± 0.96 | 101 ± 5.3 | 105 ± 14 | 96.1 ± 3 | 99.6 ± 0.36 | 97.9 ± 8.9 | 103 ± 6.5 | 81.8 ± 19 | 96.753 ± 0.087 | 95.2 ± 10 | 87.7 ± 20 | 107 ± 12 | 100.6 ± 0.51 | 106 ± 2.2 | 84.2 ± 32 | 98.6 ± 5.8 | 99 ± 3.8 | 103.3 ± 0.24 | 108.9 ± 0.38 | < 0.0301 | < 0.0301 | < 0.0301 | < 0.0301 | – | – | – | – | – | – | – | – | – | –
> 10 | > 10 | > 10 | > 10 | > 10 | CC(C(=O)O)c1cccc(C(=O)c2ccccc2)c1 (configuration not stated) [Ketoprofen] | – | – | – | – | – | – | – | – | – | – | – | – | – | – | – | – | – | – | – | – | – | – | – | – | > 10 | > 10 | > 10 | > 10 | > 10 | > 10 | > 10 | > 10 | > 10 | > 10
– | – | – | – | – | Cc1c2c(=O)n(-c3ccccc3Cl)[nH]c2cc(=O)n1Cc1ccccn1 | 103 ± 2.9 | 103 ± 1.8 | 101 ± 3.2 | 96.69 ± 0.41 | 103 ± 4.3 | 103 ± 1.3 | 105 ± 5 | 103 ± 18 | 96.9 ± 3.3 | 99.6 ± 8.5 | 98.8 ± 5.7 | 100 ± 1.9 | 98.6 ± 5.4 | 99.25 ± 0.98 | 101 ± 6.8 | 95.2 ± 3.8 | 96.6 ± 4 | 101 ± 8.3 | 96.5 ± 3.9 | 94.8 ± 2.1 | < 0.0301 | < 0.0301 | < 0.0301 | < 0.0301 | – | – | – | – | – | – | – | – | – | –
> 10 | > 10 | > 10 | > 10 | > 10 | Clc1ccccc1CN1CCc2sccc2C1 [Ticlopidine] | – | – | – | – | – | – | – | – | – | – | – | – | – | – | – | – | – | – | – | – | – | – | – | – | > 10 | > 10 | > 10 | > 10 | > 10 | > 10 | > 10 | > 10 | > 10 | > 10
– | – | – | – | – | O=C(Nc1ccccc1)c1cc([N+](=O)[O-])ccc1Cl [GW-9662] | 104 ± 4.8 | 100.8 ± 0.15 | 99.4 ± 3.7 | 106.5 ± 0.24 | 97.15 ± 0.3 | 103.27 ± 0.069 | 92.6 ± 11 | 96.8 ± 5.1 | 102 ± 3.9 | 100 ± 2.6 | 98.7 ± 5.5 | 97.9 ± 2.5 | 100 ± 2.4 | 100.8 ± 0.79 | 96.1 ± 1.9 | 99.3 ± 5.7 | 90.1 ± 20 | 95.6 ± 2.1 | 87.2 ± 8.5 | 94.4 ± 16 | < 0.0301 | < 0.0301 | < 0.0301 | < 0.0301 | – | – | – | – | – | – | – | – | – | –
